Measurements from ChEMBL document CHEMBL1201862, “PubChem BioAssay data set” (2004).
Active and inactive are the calls of the source.

Key:
Beta-galactosidase = Beta-galactosidase (Escherichia coli, UniProt Q8VNN2); test: PubChem AID 485352; assay type: functional
[1] = biological target: T1, Type-1 angiotensin II receptor (Homo sapiens, UniProt P30556); test: AT1 receptor antagonists, dose response, selectivity assay for APJ receptor antagonist project, cell-based, uHTS hits (AID 463214); assay type: functional;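 further: antagonist potency against angiotensin II stimulated AT1 response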
T1 sequence (P30556 whole entry): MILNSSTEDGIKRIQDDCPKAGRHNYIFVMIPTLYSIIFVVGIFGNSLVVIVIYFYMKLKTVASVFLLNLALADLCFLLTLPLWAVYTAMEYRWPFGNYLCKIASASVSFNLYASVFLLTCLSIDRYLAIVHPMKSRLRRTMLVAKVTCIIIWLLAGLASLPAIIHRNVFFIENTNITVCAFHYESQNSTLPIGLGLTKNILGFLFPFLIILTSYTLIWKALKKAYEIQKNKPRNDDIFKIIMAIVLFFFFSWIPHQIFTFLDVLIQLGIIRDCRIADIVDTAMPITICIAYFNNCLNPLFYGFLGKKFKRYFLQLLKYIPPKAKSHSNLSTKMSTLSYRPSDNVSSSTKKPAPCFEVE

Cytochrome P450 1A2 = biological target: T2, Cytochrome P450 1A2 (Homo sapiens, UniProt P05177);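 further: PubChem cytochrome P450 panel assay, CYP1A2 panel member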
T2 sequence (P05177 whole entry): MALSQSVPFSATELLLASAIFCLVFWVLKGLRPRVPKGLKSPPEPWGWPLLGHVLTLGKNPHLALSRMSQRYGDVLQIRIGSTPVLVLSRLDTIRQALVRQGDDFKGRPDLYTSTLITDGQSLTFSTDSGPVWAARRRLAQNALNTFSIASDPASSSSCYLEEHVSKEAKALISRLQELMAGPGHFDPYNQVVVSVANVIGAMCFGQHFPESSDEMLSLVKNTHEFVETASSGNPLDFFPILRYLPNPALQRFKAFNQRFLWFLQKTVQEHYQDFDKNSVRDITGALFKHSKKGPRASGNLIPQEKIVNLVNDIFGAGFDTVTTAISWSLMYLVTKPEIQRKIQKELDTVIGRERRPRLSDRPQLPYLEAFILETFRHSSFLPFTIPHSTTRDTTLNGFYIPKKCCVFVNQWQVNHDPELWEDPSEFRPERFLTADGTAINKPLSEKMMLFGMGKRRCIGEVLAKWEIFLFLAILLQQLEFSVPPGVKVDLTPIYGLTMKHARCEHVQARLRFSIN

Cytochrome P450 3A4 = Cytochrome P450 3A4 (Homo sapiens, UniProt P08684);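 further: CYP3A4 tested as one member of a cytochrome P450 panel screen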
Chain of Cytochrome P450 3A4 (P08684 whole entry): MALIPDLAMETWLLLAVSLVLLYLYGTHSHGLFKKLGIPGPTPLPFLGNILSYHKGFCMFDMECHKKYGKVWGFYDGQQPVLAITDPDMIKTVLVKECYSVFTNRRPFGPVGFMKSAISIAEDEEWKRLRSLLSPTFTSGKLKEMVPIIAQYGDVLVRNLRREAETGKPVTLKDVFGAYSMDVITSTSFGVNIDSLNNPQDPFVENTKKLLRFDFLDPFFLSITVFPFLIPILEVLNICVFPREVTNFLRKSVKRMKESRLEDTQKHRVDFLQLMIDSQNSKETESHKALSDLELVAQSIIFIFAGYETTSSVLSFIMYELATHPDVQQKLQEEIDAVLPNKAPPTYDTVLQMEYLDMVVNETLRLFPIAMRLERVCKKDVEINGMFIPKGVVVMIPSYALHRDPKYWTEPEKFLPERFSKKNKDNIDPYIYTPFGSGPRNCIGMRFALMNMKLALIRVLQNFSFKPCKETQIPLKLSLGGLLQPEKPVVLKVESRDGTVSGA

Vero [2] = test: cells; assay type: functional; details: Chlorocebus sabaeus
Vero [3] = test: cells; assay type: functional, cell-based; details: Chlorocebus sabaeus
Trypsin = Trypsin (Sus scrofa, UniProt P00761); test: porcine trypsin inhibitors, dose response, selectivity assay for Rce1 protease inhibitor project, biochemical, quenched peptide fluorescence, cherry-pick (AID 488789)
Chain of Trypsin (P00761 whole entry): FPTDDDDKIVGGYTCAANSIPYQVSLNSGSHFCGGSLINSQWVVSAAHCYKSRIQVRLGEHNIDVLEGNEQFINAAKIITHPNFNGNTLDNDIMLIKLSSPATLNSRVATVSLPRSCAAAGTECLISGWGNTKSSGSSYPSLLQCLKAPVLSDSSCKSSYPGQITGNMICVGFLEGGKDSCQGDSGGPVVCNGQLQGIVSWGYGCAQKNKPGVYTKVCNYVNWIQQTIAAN

CAAX prenyl protease 2 = biological target: T3, CAAX prenyl protease 2 (Homo sapiens, UniProt Q9Y256); test: human Rce1 protease inhibitors, dose response, biochemical, yeast membranes, quenched-peptide fluorescence, cherry-pick (AID 588849)
T3 sequence (Q9Y256 whole entry): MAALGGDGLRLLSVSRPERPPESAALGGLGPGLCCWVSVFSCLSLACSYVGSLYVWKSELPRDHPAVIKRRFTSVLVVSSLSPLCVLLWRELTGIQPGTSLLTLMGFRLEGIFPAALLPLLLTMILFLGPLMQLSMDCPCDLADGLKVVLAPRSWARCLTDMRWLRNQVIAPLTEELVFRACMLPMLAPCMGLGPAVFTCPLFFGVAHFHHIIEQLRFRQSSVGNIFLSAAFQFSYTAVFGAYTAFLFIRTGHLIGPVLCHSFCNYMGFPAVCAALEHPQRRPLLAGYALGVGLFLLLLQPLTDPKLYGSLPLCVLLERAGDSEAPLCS

[4] = biological target: T4, Heat shock factor protein 1 (Mus musculus, UniProt P38532); test: HSF1 potentiators in luciferase reporter cells, confirmation, cell-based, NIH3T3, luminescence, dose retest (AID 435004); assay type: functional;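 further: stress induced by proteasome inhibitor MG132 added 30 min after compound; luciferase reporter driven by HSF1 response element in NIH3T3 cells; actives raise luminescence as potentiators of the MG132 stress response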
T4 sequence (P38532 whole entry): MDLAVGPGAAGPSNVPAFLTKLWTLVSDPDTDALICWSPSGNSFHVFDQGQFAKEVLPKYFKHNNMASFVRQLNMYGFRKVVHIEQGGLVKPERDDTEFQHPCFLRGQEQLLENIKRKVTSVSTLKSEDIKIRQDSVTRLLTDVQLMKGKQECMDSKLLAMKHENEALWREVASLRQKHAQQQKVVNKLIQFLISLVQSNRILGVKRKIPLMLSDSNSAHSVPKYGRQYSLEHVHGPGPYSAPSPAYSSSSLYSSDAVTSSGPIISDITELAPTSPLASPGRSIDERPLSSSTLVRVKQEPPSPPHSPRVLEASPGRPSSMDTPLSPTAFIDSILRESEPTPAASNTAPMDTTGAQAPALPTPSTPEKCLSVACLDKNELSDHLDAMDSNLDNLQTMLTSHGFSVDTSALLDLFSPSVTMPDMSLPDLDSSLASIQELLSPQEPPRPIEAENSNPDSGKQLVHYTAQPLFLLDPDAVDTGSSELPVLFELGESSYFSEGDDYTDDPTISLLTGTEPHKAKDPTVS

Cytochrome P450 2C9 = Cytochrome P450 2C9 (Homo sapiens, UniProt P11712)
Chain of Cytochrome P450 2C9 (P11712 whole entry): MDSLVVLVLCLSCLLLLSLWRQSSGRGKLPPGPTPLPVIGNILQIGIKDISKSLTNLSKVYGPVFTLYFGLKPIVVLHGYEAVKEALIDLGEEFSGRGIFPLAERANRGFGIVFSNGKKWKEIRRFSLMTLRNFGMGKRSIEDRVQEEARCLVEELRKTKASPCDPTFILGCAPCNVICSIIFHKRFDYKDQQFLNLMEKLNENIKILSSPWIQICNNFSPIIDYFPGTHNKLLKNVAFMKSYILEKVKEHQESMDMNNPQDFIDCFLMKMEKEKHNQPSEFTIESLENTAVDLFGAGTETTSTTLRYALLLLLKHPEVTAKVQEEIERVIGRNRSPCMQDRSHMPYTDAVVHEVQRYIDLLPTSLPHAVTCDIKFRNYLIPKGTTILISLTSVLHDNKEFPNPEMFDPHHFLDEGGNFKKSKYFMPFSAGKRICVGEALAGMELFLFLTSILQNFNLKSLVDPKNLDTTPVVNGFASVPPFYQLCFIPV

HEK293 = test: inhibitors of LMP1-driven NF-kB reporter, dose response, cell-based, HEK293, luciferase, cherry-pick (AID 588343); assay type: functional; details: Homo sapiens
H9c2 = test: cells; assay type: functional, cell-based; details: Rattus norvegicus, H9c2, Myocardium
[5] = biological target: T5, Microphthalmia-associated transcription factor (Homo sapiens, UniProt O75030); test: TRPM1 promoter luciferase signal decrease, dose response, MITF inhibitor project, cell-based, SK-MEL-5, cherry-picked, set 3 (AID 493073); assay type: functional
T5 sequence (O75030 whole entry): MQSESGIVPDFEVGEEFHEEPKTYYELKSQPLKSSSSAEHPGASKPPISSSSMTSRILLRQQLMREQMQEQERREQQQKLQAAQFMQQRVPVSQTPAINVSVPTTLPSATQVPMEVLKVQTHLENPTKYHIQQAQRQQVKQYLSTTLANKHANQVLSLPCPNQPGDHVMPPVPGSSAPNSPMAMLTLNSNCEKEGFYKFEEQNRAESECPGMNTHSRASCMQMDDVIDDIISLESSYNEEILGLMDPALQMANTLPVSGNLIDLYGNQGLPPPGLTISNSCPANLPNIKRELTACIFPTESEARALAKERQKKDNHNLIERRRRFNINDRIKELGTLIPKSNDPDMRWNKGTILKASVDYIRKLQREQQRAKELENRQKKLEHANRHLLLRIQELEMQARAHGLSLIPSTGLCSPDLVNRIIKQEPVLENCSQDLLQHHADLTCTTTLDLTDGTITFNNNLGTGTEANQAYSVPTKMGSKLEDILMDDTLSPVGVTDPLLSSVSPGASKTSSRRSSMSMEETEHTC

[6] = NIH-3T3 fibroblast cytotoxicity, dose response, cytotoxicity control, cell-based, fluorescence, Alamar Blue, secondary assay (AID 2327); assay type: functional;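 further: NIH-3T3 mouse fibroblasts cultured with fluconazole at 8 µg/mL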
[7] = test system: Streptococcus sp. 'group A'; test: growth inhibition of control SK(-) GAS strain, dose response, counter-screen for streptokinase expression inhibitor project, luminescence, kanamycin, BacTiterGlo, confirmation (AID 1900); assay type: functional, organism-based; details: read-out: EC50
Streptococcus = test: Group A Streptococcus viability loss, dose response, counter-screen for streptokinase expression inhibitor project, luminescence, BacTiterGlo (AID 1915); assay type: functional, organism-based;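 further: potency for reduction of bacterial viability or growth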
[8] = C. albicans growth with fluconazole, confirmation, fluorescence, retest (AID 2467); assay type: functional, cell-based
[9] = inhibitors of firefly luciferase expression or activity, dose response, H4 neuroglioma cells, luminescence (AID 1990); assay type: functional, cell-based
[10] = Luminescence Cell-Based Dose Response HTS to Identify Inhibitors of 5'UTR Stem-Loop Driven Prion Protein mRNA Translation in H4 Neuroglioblastoma Cells. [Related pubchem assays: 1827 (Project Summary), 1813 (Primary HTS)]; assay type: functional
Vero [11] = test: host cell cytotoxicity of antiviral hits, dose response, cytotoxicity control for West Nile virus antiviral project, secondary assay (AID 1650); assay type: functional, Chlorocebus sabaeus
Paired box protein Pax-8 = Paired box protein Pax-8 (Homo sapiens, UniProt Q06710); test: inhibitors of PAX8-driven TPO luciferase reporter, dose response, RMG-I cells, cherry-pick (AID 687027); assay type: functional, cell-based;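 further: luciferase reporter driven by Pax8 target thyroperoxidase promoter measured by SteadyGlo luminescence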
Chain of Paired box protein Pax-8 (Q06710 whole entry): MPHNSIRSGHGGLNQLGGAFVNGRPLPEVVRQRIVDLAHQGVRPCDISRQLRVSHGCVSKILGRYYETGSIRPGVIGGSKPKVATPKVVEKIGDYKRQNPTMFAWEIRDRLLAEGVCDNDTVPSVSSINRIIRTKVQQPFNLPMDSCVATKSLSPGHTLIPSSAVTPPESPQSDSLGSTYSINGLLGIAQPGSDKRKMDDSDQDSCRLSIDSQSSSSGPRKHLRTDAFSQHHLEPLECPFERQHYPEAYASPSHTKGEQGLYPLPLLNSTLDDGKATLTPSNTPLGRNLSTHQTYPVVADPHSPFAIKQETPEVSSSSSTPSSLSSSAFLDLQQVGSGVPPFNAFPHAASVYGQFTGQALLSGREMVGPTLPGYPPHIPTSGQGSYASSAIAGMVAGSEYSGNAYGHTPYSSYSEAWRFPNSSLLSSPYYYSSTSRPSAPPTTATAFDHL

BJ = test: cytotoxicity toward Ras-transformed BJeLR fibroblasts, dose response, cell-based, alamar blue fluorescence, cherrypicked samples (AID 2631); assay type: functional; details: Homo sapiens;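 further: confirmatory dose-response assay in RAS-dependent BJ fibroblasts engineered with TERT, LT and ST, with cytotoxicity read by fluorescence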
[12] = inhibitors of SNCA 5'UTR-driven reporter translation, confirmation, H4 neuroglioma cells, luminescence (AID 1988); assay type: functional, cell-based

Chain of Beta-galactosidase (Q8VNN2 whole entry): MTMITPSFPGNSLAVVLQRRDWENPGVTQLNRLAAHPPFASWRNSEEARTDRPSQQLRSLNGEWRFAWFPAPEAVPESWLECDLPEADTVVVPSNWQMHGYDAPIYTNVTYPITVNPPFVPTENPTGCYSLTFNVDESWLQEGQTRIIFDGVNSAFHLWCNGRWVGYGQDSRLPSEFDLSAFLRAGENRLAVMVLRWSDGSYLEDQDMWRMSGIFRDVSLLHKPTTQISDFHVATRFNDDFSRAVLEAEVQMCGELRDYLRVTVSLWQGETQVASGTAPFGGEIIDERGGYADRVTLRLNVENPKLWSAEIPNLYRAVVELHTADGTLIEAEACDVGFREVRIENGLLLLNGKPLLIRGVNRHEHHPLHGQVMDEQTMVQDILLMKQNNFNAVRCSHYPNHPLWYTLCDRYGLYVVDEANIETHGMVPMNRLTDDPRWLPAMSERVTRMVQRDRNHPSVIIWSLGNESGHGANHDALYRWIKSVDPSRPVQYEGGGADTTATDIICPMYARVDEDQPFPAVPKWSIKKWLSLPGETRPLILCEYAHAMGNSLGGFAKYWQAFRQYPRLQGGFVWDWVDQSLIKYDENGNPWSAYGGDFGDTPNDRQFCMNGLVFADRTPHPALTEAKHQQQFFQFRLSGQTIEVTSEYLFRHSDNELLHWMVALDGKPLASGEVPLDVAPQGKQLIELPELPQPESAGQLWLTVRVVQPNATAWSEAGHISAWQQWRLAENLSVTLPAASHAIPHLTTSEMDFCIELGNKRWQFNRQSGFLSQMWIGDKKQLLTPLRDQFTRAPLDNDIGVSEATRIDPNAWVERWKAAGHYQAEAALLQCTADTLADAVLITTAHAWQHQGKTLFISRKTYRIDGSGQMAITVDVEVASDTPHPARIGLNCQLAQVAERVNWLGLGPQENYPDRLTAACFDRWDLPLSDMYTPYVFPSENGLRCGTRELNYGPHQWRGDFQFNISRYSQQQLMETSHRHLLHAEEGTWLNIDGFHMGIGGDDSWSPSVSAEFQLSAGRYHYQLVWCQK

## O=C(CCC(=O)OCC(=O)c1cccc([N+](=O)[O-])c1)Nc1ccccc1Cl
Beta-galactosidase
  EC50: > 40 µM (inactive)
[1]
  IC50: 15 µM (active)

## CCN(CC)S(=O)(=O)c1ccc(NC(=O)COC(=O)c2ccc(Br)o2)cc1
Cytochrome P450 1A2
  AC50: 0.316 µM (inconclusive)
Cytochrome P450 3A4
  AC50: inconclusive

## Cc1ccc(N(Cc2cc(O)nc3ccccc23)C(=O)CCl)c(C)c1
Vero [2]
  CC50: 7.95 µM (active)
Vero [3]
  IC50: > 25 µM (active)

## CCN1CCN(Cc2c(O)ccc3c(=O)c(-c4ccccc4OC)coc23)CC1
Trypsin
  AC50: 16 µM (active)
CAAX prenyl protease 2
  AC50: 5.2 µM (active)

## O=C(COc1ccccc1)OCC(=O)c1ccc(S(=O)(=O)N2CCCCC2)cc1
Beta-galactosidase
  EC50: > 40 µM (inactive)
[1]
  IC50: 16.9 µM (active)

## COc1cc2c(cc1OC)C(CCc1ccccc1)=NCC2
[4]
  EC50: > 260 µM (inactive)
Trypsin
  AC50: 9.41 µM (active)
CAAX prenyl protease 2
  AC50: 6.03 µM (active)

## Cn1c(=O)c(-c2ccccc2)nc2cnc(Oc3ccccc3)nc21
Cytochrome P450 2C9
  AC50: 12.6 µM (inconclusive)
Cytochrome P450 3A4
  AC50: inconclusive

## CCOc1ccccc1C(=O)N[C@H](C(=O)OCc1cc([N+](=O)[O-])cc2c1OCOC2)C(C)C
HEK293
  AC50: 183 µM (active)

## Cc1cc(C)c2ccc(N)nc2c1O
H9c2
  IC50: > 79 µM (inactive)
[5]
  AC50: 9.58 µM (active)
[6]
  EC50: > 150 µM (inconclusive)
[7]
  EC50: 3.15 µM (active)
Beta-galactosidase
  EC50: > 40 µM (inactive)
Streptococcus
  EC50: 9.09 µM (active)
[8]
  EC50: > 38 µM (not active)
[1]
  IC50: 13.7 µM (active)

## C[C@H]1O[C@@H](O[C@H]2[C@@H](O)C[C@H](O[C@H]3[C@@H](O)C[C@H](O[C@H]4CC[C@@]5(C)[C@H](CC[C@@H]6[C@@H]5C[C@@H](O)[C@]5(C)[C@@H](C7=CC(=O)OC7)CC[C@]65O)C4)O[C@@H]3C)O[C@@H]2C)C[C@H](O)[C@@H]1O [DIGOXIN]
[9]
  EC50: < 0.1 µM (active)
[10]
  EC50: < 0.1 µM (active)
Vero [11]
  CC50: 0.37 µM (active)
Vero [11]; Chlorocebus sabaeus, Vero
  CC50: 0.3 µM (active)
Paired box protein Pax-8
  AC50: 0.414 µM (active)
Vero [2]
  CC50: 0.39 µM (active)
BJ
  EC50: < 0.104 µM (active)
Vero [3]
  IC50: < 0.05 µM (active)
[12]
  EC50: < 0.1 µM (active)
